The source of these data is patent publication US20190022220A1, “LIGHT-ACTIVATED ANCHORING OF THERAPEUTIC FACTORS TO TISSUES” (The Board of Trustees of the Leland Stanford Junior …, priority 2016, published 2019).

Data set [1] concerns human mesenchymal stem cells (hMSCs). Description: Live-dead assay of hMSCs encapsulated in collagen gels formed with riboflavin and blue light. In kind it is cell-based. The settings on record: 72 hours; riboflavin 0.25 mM or less; 20 sec blue light at 100 mW/cm^2; cells in collagen gel. The text has this: A major clinical challenge is the delivery of cells, particularly stem cells, to an diseased or damaged area of the body. Currently, the stem cells are typically injected in suspension to an area without a specific or effective means to have them target and adhere to a particular location. Providing a immobilizing matrix and microenvironment in which to settle and grow while remaining immobilized to that are would be an advancement in the art. Cells can be encapsulated within a biomolecular gel according to the present invention. […] Using this method, hMSCs and other cell types can be encapsulated and positioned to a specific location in the body. For instance, a collagen gel encapsulating hMSCs can be formed and adhered in situ using blue light and riboflavin on the surface of a corneal wound, creating a “living reservoir” of therapeutic factors that are secreted by the immobilized hMSCs. The formed gel adheres to the target tissue due to crosslinks formed between the exogenously applied collagen and the collagen on the wound bed or target tissue which is shown by example in FIG. 9D.

A short description of data set [2]: EGF release from V-CXL collagen gels (ELISA). It counts as physicochemical. The settings on record: 37° C., 2 to 120 hours. How it is done: FIG. 9C summarizes the storage and loss modulus of collagen gels crosslinked using riboflavin and blue light exposure of different time intervals.
Growth factor release. To understand the ability of growth factors to be liberated from crosslinked collagen, human recombinant EGF (Peprotech) was incorporated within collagen gels during gelation. A neutralized 3% collagen solution with 0.25 mM riboflavin was exposed to blue light (˜458 nm) at 60 mW/cm^2 for 20 seconds. The formed gel was then cut into cylindrical discs and placed in a PBS solution with or without 0.1% versus 0.2% collagenase at 37° C. on a shaker. The solution was then sampled at intervals starting at 2 hours to 120 hours. An ELISA kit was then used to evaluate the concentration of released EGF in the solution.
Background: In an ELISA, binding on a coated surface is turned into a signal by an enzyme label.

Data set [3] concerns primary rabbit corneal epithelial cells (CECs). Description: Proliferation of corneal epithelial cells on EGF-bound collagen surfaces. In kind it is cell-based. The settings on record: over 5 days; EGF bound to collagen by V-CXL vs collagen without covalently linked EGF; both concentrations tested. The method, then:
Enhanced cell proliferation on growth factor fortified collagen gels. Late-passage primary rabbit corneal epithelial cells (CECs) of the same cell density were grown on surfaces with EGF bound to collagen using V-CXL as well as standard collagen-coated tissue-culture polystyrene without covalently linked EGF.

Data set [4] has as its system 2 mm corneal debridement wound. Description: Rodent corneal debridement wound healing and ocular tolerance study. In kind it is in vivo. The method, then: FIGS. 13A-13D show results of EGF surface-coupling by V-CXL in a rodent corneal debridement animal model. A 2 mm corneal debridement was performed in three groups of two rodent eyes each (average corneal diameter=3 mm). Shown here are photographs of fluorescein-stained rodent eyes at 24 hours: EGF encapsulated within a collagen gel using riboflavin and blue light exposure for 5 seconds (FIG. 13A), EGF coupling directly to corneal stroma using riboflavin and blue light exposure for 5 seconds (FIG. 13B), topical EGF only (FIG. 13C), and no treatment (FIG. 13D). Slit lamp photos of the wounded and treated eyes are shown on the left, and fluorescein staining of the same eyes are shown on the right.
Mouse corneas were subject to 2 mm diameter circular corneal debridement and then treated with (1) a collagen gel solution containing 0.01 mg/ml of EGF, and 0.1 mg/ml riboflavin and exposed to blue light (˜458 nm) for 5 seconds, (2) an aqueous EGF solution containing 0.01 mg/ml EGF and 0.1 mg/ml riboflavin and exposed to blue light for 5 seconds, (3) topical application of an aqueous solution of EGF alone at a concentration of 0.01 mg/mL, or (4) no treatment. The rodents were then examined at 24 hours and the wound areas examined by fluorescein staining.
In vivo ocular tolerance and wound healing animal study: In an animal study in rodents, V-CXL was used to bind EGF to wounded corneas. Briefly, a 2 mm diameter debridement was performed, and the wound bed was treated topically with 0.025 mM of riboflavin mixed with 0.01 mg/mL of EGF delivered topically to the wound bed and allowed incubate for 10 minutes followed by 5 seconds of exposure to blue light (˜458 nm) at 60 mW/cm^2. The eye was then rinsed with BSS. Controls used were topical EGF alone and no treatment.

The subject of data set [5] is NGF receptor. The data set can be described thus: Ellipsometry of soluble NGF receptor binding to NGF-coupled collagen surfaces. The following applies: NGF photochemically coupled to collagen compared to physisorbed NGF. The text has this: V-CXL binds growth factors directly to collagen. V-CXL was used to bind EGF and NGF growth factors directly to collagen. Fluorometry (FIG. 3), surface plasmon resonance (FIG. 4), ellipsometry (FIG. 5), and ELISA (FIG. 6) were used to monitor and compare the chemical coupling versus physical adsorption of NGF and EGF to collagen surfaces. In these experiments, collagen was first chemically immobilized to either gold, glass, or polystyrene surfaces (depending on the method being used), followed by V-CXL-mediated coupling of either EGF or NGF (or their fluorescein-isothiocyanate (FITC)-labeled conjugates) to the collagen coating alone or physical adsorption of growth factor to collagen from aqueous solution.
Exposure of NGF to blue light in the presence of riboflavin led to a step-increase in the layer thickness of the collagen-coated gold wafer.

Entries after “also recorded” stand apart in the source; their conditions may differ.

As to `Cc1cc2nc3c(=O)[nH]c(=O)nc-3n(C[C@H](O)[C@H](O)[C@H](O)CO)c2cc1C` [riboflavin], in data set [1], the “% living hMSCs (viability)” value is listed as “greater than 90%”.
Consider epidermal growth factor [EGF], for which the “EGF release from collagen gel” value in data set [2] (0.1% versus 0.2% collagenase in PBS) is “increases the release in a dose-dependent manner; also recorded: accelerated in a dose-dependent manner”; in data set [2] (PBS alone, 3% collagen, 0.25 mM riboflavin, blue light 60 mW/cm^2 20 seconds), “relatively slow release and slow”. Besides, the “proliferation of senescent primary CECs” value in data set [3] is recorded as “greater proliferation”. The “wound area by fluorescein staining vs topical EGF alone or no treatment” value in data set [4] (24 hours, 0.01 mg/ml EGF, 0.1 mg/ml riboflavin, blue light (~458 nm) 5 seconds) is “smaller; also recorded: greater wound area reduction”. For the same molecule, the “reduction in wound area by fluorescein staining compared with controls” value in data set [4] (24 hours, EGF-coupled corneas (0.025 mM riboflavin, 0.01 mg/mL EGF, 5 s blue light) vs topical EGF alone and no treatment, n=2) is given as “greater reduction in wound area”. For the same molecule, in data set [4] (24 hours, V-CXL: 0.025 mM riboflavin + 0.01 mg/mL EGF, 5 seconds blue light (~458 nm) at 60 mW/cm^2, n=2, ImageJ analysis), the “wound area as % of the wound area in topical EGF-treated eyes” value is given as “approximately 50%”. Besides, in data set [4] (24 hours, V-CXL: 0.025 mM riboflavin + 0.01 mg/mL EGF, 5 seconds blue light at 60 mW/cm^2, n=2, ImageJ analysis), the “wound area as % of the wound area of untreated eyes” value is given as “approximately 35%”. In data set [4] (eyes treated with EGF and riboflavin in the V-CXL reaction), the “signs of ocular intolerance (conjunctival injection, swelling, discharge, corneal toxicity)” value is listed as “No signs of ocular intolerance”.
Take nerve growth factor [NGF]: in data set [5], the “NGF receptor binding (change in relative layer thickness)” value was “higher amount of NGF receptor binding; also recorded: greater NGF binding”.
